HELM strings list units from the 5' end as sugar, base in round brackets, then linkage (d deoxyribose, r ribose, m 2'-O-methyl, p phosphodiester). Strings are as the collection lists them, not checked against the first reports. ss, as = sense and antisense strand; [una] = unlocked nucleic acid; [s4r] = 4'-thioribose; [fl2r] = 2'-fluoro
Also: test system not given here.

The conditions of the data set: siRNA.
“RNA1{m(A)p.r(U)p.m(C)p.r(G)p.m(U)p.r(C)p.m(G)p.r(U)p.m(C)p.r(A)p.m(G)p.r(G)p.m(G)p.m(U)p.r(A)p.m(A)p.r(G)p.m(G)p.r(U)p.r(T)p.r(T)}|RNA2{r(A)p.r(C)p.r(C)p.r(U)p.r(U)p.r(A)p.r(C)p.r(C)p.r(C)p.r(U)p.r(G)p.r(A)p.r(C)p.r(G)p.m(A)p.r(C)p.m(G)p.r(A)p.m(U)p.r(T)p.r(T)}$$$RNA1{StrandType:ss}|RNA2{StrandType:as}$” gave a target mRNA knockdown of 34%.

On to “RNA1{r(A)p.r(A)p.r(G)p.r(G)p.r(A)p.r(C)p.r(C)p.m(U)p.r(A)p.r(G)p.r(A)p.r(G)p.r(G)p.r(A)p.r(G)p.r(U)p.m(C)p.m(A)p.r(C)p.r(T)p.r(T)}|RNA2{r(G)p.m(U)p.r(G)p.r(A)p.r(C)p.r(U)p.r(C)p.r(C)p.r(U)p.r(C)p.m(U)p.r(A)p.r(G)p.r(G)p.r(U)p.r(C)p.r(C)p.r(U)p.r(U)p.r(T)p.r(T)}$$$RNA1{StrandType:ss}|RNA2{StrandType:as}$”, for which the target mRNA knockdown worked out at 78%.

“RNA1{r(G)p.r(A)p.m(U)p.r(A)p.r(G)p.r(G)p.r(A)p.r(A)p.r(G)p.r(G)p.r(G)p.r(G)p.r(C)p.r(U)p.r(U)p.r(C)p.r(A)p.r(G)p.r(C)p.r(T)p.r(T)}|RNA2{r(G)p.r(C)p.r(U)p.r(G)p.r(A)p.r(A)p.r(G)p.r(C)p.r(C)p.r(C)p.r(C)p.r(U)p.r(U)p.r(C)p.r(C)p.m(U)p.m(A)p.r(U)p.r(C)p.r(T)p.r(T)}$$$RNA1{StrandType:ss}|RNA2{StrandType:as}$” gave a target mRNA knockdown of 41%.

With “RNA1{[s4r](C)p.[s4r](G)p.r(U)p.r(A)p.r(C)p.r(G)p.r(C)p.r(G)p.r(G)p.r(A)p.r(A)p.r(U)p.r(A)p.r(C)p.r(U)p.r(U)p.r(C)p.[s4r](G)p.[s4r](A)p.r(T)p.r(T)}|RNA2{r(U)p.r(C)p.r(G)p.r(A)p.r(A)p.r(G)p.r(U)p.r(A)p.r(U)p.r(U)p.r(C)p.r(C)p.r(G)p.r(C)p.r(G)p.r(U)p.r(A)p.r(C)p.r(G)p.r(T)p.r(T)}$$$RNA1{StrandType:ss}|RNA2{StrandType:as}$”, the target mRNA knockdown is 95.3%.

Substance “RNA1{m(G)p.r(G)p.m(C)p.r(C)p.m(U)p.r(U)p.m(U)p.r(C)p.m(U)p.r(C)p.m(U)p.r(C)p.m(U)p.r(A)p.m(G)p.r(A)p.m(U)p.r(A)p.m(U)p.r(T)p.r(T)}|RNA2{r(A)p.r(U)p.r(A)p.r(U)p.r(C)p.r(U)p.r(A)p.r(G)p.r(A)p.r(G)p.r(A)p.r(G)p.r(A)p.r(A)p.r(A)p.m(G)p.r(G)p.r(C)p.r(C)p.r(T)p.r(T)}$$$RNA1{StrandType:ss}|RNA2{StrandType:as}$” returned a target mRNA knockdown of 80%.

“RNA1{r(G)p.r(U)p.r(A)p.r(U)p.r(G)p.r(A)p.r(C)p.r(C)p.r(G)p.r(A)p.r(C)p.r(U)p.r(A)p.r(C)p.r(G)p.r(C)p.r(G)p.r(U)p.r(A)p.r(T)p.r(T)}|RNA2{r(U)p.r(U)p.r(C)p.r(A)p.r(G)p.r(U)p.r(G)p.r(U)p.r(G)p.r(A)p.r(U)p.r(G)p.r(A)p.r(C)p.r(A)p.r(C)p.[una](U)p.r(U)p.r(G)p.r(T)p.r(T)}$$$RNA1{StrandType:ss}|RNA2{StrandType:as}$” yielded a target mRNA knockdown of 87%.

Substance “RNA1{r(G)p.r(G)p.r(A)p.r(A)p.r(G)p.r(A)p.r(A)p.r(G)p.r(A)p.[fl2r](U)p.r(A)p.r(G)p.r(A)p.r(G)p.[fl2r](C)p.r(A)p.r(U)p.r(C)p.r(C)p.r(T)p.r(T)}|RNA2{r(G)p.r(G)p.r(A)p.[fl2r](U)p.r(G)p.r(C)p.r(U)p.r(C)p.[fl2r](U)p.r(A)p.r(U)p.r(C)p.r(U)p.r(U)p.r(C)p.r(U)p.r(U)p.r(C)p.r(C)p.r(T)p.r(T)}$$$RNA1{StrandType:ss}|RNA2{StrandType:as}$” showed a target mRNA knockdown of 37%.

For the substance “RNA1{r(A)p.r(A)p.r(G)p.r(G)p.r(A)p.r(G)p.r(A)p.m(U)p.m(C)p.r(A)p.r(A)p.m(C)p.r(A)p.m(U)p.m(U)p.m(U)p.m(U)p.m(C)p.r(A)p.r(T)p.r(T)}|RNA2{m(U)p.r(G)p.r(A)p.r(A)p.r(A)p.r(A)p.m(U)p.r(G)p.m(U)p.m(U)p.r(G)p.r(A)p.m(U)p.m(C)p.m(U)p.m(C)p.m(C)p.m(U)p.m(U)p.r(T)p.r(T)}$$$RNA1{StrandType:ss}|RNA2{StrandType:as}$”, the target mRNA knockdown amounted to 37%.

In the case of “RNA1{r(A)p.r(G)p.r(A)p.r(A)p.r(G)p.r(G)p.r(A)p.r(C)p.m(U)p.r(A)p.r(C)p.m(U)p.r(A)p.r(A)p.r(C)p.r(C)p.m(U)p.r(C)p.r(C)p.r(T)p.r(T)}|RNA2{r(G)p.r(G)p.r(A)p.r(G)p.r(G)p.m(U)p.m(U)p.r(A)p.r(G)p.m(U)p.r(A)p.r(G)p.m(U)p.r(C)p.r(C)p.m(U)p.m(U)p.r(C)p.m(U)p.r(T)p.r(T)}$$$RNA1{StrandType:ss}|RNA2{StrandType:as}$”, the target mRNA knockdown was determined as 49%.

As for “RNA1{r(A)p.r(A)p.m(U)p.r(A)p.r(A)p.r(G)p.m(C)p.r(A)p.r(G)p.r(C)p.r(U)p.r(C)p.r(G)p.m(C)p.r(G)p.r(C)p.r(U)p.r(C)p.r(C)p.r(T)p.r(T)}|RNA2{r(G)p.r(G)p.r(A)p.r(G)p.r(C)p.r(G)p.r(C)p.r(G)p.r(A)p.r(G)p.r(C)p.m(U)p.r(G)p.r(C)p.r(U)p.m(U)p.r(A)p.r(U)p.r(U)p.r(T)p.r(T)}$$$RNA1{StrandType:ss}|RNA2{StrandType:as}$”, the target mRNA knockdown was found to be 51%.

Turning to “RNA1{r(G)p.m(C)p.r(A)p.r(G)p.r(A)p.r(G)p.r(A)p.r(A)p.r(U)p.r(C)p.m(U)p.r(A)p.r(C)p.r(C)p.r(U)p.r(U)p.r(U)p.r(C)p.r(C)p.r(T)p.r(T)}|RNA2{r(G)p.r(G)p.r(A)p.r(A)p.r(A)p.r(G)p.r(G)p.m(U)p.r(A)p.r(G)p.r(A)p.r(U)p.r(U)p.r(C)p.r(U)p.r(C)p.m(U)p.r(G)p.r(C)p.r(T)p.r(T)}$$$RNA1{StrandType:ss}|RNA2{StrandType:as}$”, the target mRNA knockdown was 75%.

“RNA1{m(G)p.r(A)p.m(A)p.r(G)p.m(A)p.r(G)p.m(C)p.r(C)p.m(U)p.r(A)p.m(C)p.r(A)p.m(C)p.r(A)p.m(A)p.r(C)p.m(C)p.r(C)p.m(U)p.r(T)p.r(T)}|RNA2{r(A)p.m(G)p.m(G)p.m(G)p.r(U)p.r(U)p.m(G)p.r(U)p.m(G)p.r(U)p.r(A)p.m(G)p.m(G)p.r(C)p.r(U)p.r(C)p.r(U)p.r(U)p.r(C)p.r(T)p.r(T)}$$$RNA1{StrandType:ss}|RNA2{StrandType:as}$”: the target mRNA knockdown turned out to be 43%.

The substance “RNA1{r(A)p.r(G)p.r(C)p.r(C)p.r(U)p.r(C)p.m(C)p.r(A)p.r(A)p.r(A)p.r(C)p.r(U)p.r(C)p.r(C)p.m(U)p.r(A)p.r(G)p.r(C)p.r(U)p.r(T)p.r(T)}|RNA2{r(A)p.r(G)p.r(C)p.m(U)p.r(A)p.r(G)p.r(G)p.r(A)p.r(G)p.r(U)p.r(U)p.m(U)p.r(G)p.r(G)p.r(A)p.r(G)p.r(G)p.r(C)p.r(U)p.r(T)p.r(T)}$$$RNA1{StrandType:ss}|RNA2{StrandType:as}$” registered a target mRNA knockdown of 65%.

For the substance “RNA1{r(C)p.r(G)p.r(U)p.r(A)p.r(C)p.r(G)p.[s4r](C)p.[s4r](G)p.[s4r](G)p.[s4r](A)p.[s4r](A)p.[s4r](U)p.[s4r](A)p.r(C)p.r(U)p.r(U)p.r(C)p.r(G)p.r(A)p.r(T)p.r(T)}|RNA2{r(U)p.r(C)p.r(G)p.r(A)p.r(A)p.r(G)p.r(U)p.r(A)p.r(U)p.r(U)p.r(C)p.r(C)p.r(G)p.r(C)p.r(G)p.r(U)p.r(A)p.r(C)p.r(G)p.r(T)p.r(T)}$$$RNA1{StrandType:ss}|RNA2{StrandType:as}$”, the target mRNA knockdown was 87.4%.

Source of the values: the OligoGym collection.
